Experimental data from US20120294879A1, “CONSENSUS SEQUENCE FOR INFLUENZA A VIRUS” (priority 2009, published 2012).

Assays:
Type in all cases: cell-based
[1] = system: splenocytes of HLA-A24 (A*2402) transgenic mice; design: key to A24: average IFN-γ spots forming cells per million splenocytes: — represents no positive ELISpot response
[2] = system: splenocytes of HLA-B7 (B*0702) transgenic mice; design: key to B7: average IFN-γ spots forming cells per million splenocytes: — represents no positive ELISpot response
[3] = system: splenocytes of HLA-DR2 (DRB1*1501) transgenic mice; design: key to DR2: average IFN-γ spots forming cells per million splenocytes: — represents no positive ELISpot response
[4] = system: splenocytes of HLA-DR3 (DRB1*0301) transgenic mice; design: key to DR3: average IFN-γ spots forming cells per million splenocytes: — represents no positive ELISpot response
[5] = system: splenocytes of HLA-DR4 (DRB1*0401) transgenic mice; design: key: — represents no positive ELISpot response

| Sequence | A24: average IFN-γ spots forming cells per million splenocytes [1] | B7: average IFN-γ spots forming cells per million splenocytes [2] | DR2: average IFN-γ spots forming cells per million splenocytes [3] | DR3: average IFN-γ spots forming cells per million splenocytes [4] | DR3: lowest concentration of peptide giving positive ELISpot response in peptide titration [4] | DR4: average IFN-γ spots forming cells per million splenocytes [5] | DR2: lowest concentration of peptide giving positive ELISpot response in peptide titration [3] | A24: lowest concentration of peptide giving positive ELISpot response in peptide titration [1] | B7: lowest concentration of peptide giving positive ELISpot response in peptide titration [2] |
| --- | --- | --- | --- | --- | --- | --- | --- | --- | --- |
| DQSLIIAARNIVRRAAV | — | — | — | 169 ± 12(0.1) IFN-γ spots forming cells per million splenocytes | 169 ± 12(0.1) μg/ml | — |  |  |  |
| RFYRTCKLLGINMSKKK | — | — | 231 ± 73(1) IFN-γ spots forming cells per million splenocytes | — |  | — | 231 ± 73(1) μg/ml |  |  |
| ESADMSIGVTVIKNNMI | — | — | 75 ± 10(0.1) IFN-γ spots forming cells per million splenocytes | — |  | — | 75 ± 10(0.1) μg/ml |  |  |
| EVHIYYLEKANKIKSEK | — | — | — | — |  | 37 ± 11(0.1) IFN-γ spots forming cells per million splenocytes |  |  |  |
| LQLFIKDYRYTYRCHRG | — | — | 61 ± 2(1) IFN-γ spots forming cells per million splenocytes | 230 ± 23(0.1) IFN-γ spots forming cells per million splenocytes | 230 ± 23(0.1) μg/ml | 97 ± 30(0.1) IFN-γ spots forming cells per million splenocytes | 61 ± 2(1) μg/ml |  |  |
| NDLGPATAQMALQLFIK | 92 ± 2(1) IFN-γ spots forming cells per million splenocytes | — | — | — |  | — |  | 92 ± 2(1) μg/ml |  |
| RMQFSSLTVNVRGSGMR | — | — | 104 ± 16(0.1) IFN-γ spots forming cells per million splenocytes | — |  | — | 104 ± 16(0.1) μg/ml |  |  |
| KRSYEQMETDGERQNAT | — | — | — | — |  | 52 ± 29(0.1) IFN-γ spots forming cells per million splenocytes |  |  |  |
| LTHIMIWHSNLNDTTYQ | — | — | 238 ± 59(0.1) IFN-γ spots forming cells per million splenocytes | — |  | — | 238 ± 59(0.1) μg/ml |  |  |
| ESKSMKLRTQIPAEMLA | — | — | 84 ± 20(0.1) IFN-γ spots forming cells per million splenocytes | — |  | — | 84 ± 20(0.1) μg/ml |  |  |
| DYRYTYRCHRGDTQIQT | — | — | 109 ± 13(1) IFN-γ spots forming cells per million splenocytes | 166 ± 22(0.1) IFN-γ spots forming cells per million splenocytes | 166 ± 22(0.1) μg/ml | 76 ± 2(0.1) IFN-γ spots forming cells per million splenocytes | 109 ± 13(1) μg/ml |  |  |
| NPSLRMKWMMAMKYPIT | — | — | — | — |  | 166 ± 3(0.1) IFN-γ spots forming cells per million splenocytes |  |  |  |
| LLRHFQKDAKVLFLNWG | — | — | — | 444 ± 14(0.1) IFN-γ spots forming cells per million splenocytes | 444 ± 14(0.1) μg/ml | — |  |  |  |
| MELPSFGVSGVNESADM | — | — | — | — |  | 274 ± 15(0.1) IFN-γ spots forming cells per million splenocytes |  |  |  |
| KYPITADKRITEMIPER | — | — | — | 499 ± 4(0.1) IFN-γ spots forming cells per million splenocytes | 499 ± 4(0.1) μg/ml | — |  |  |  |
| FFYRYGFVANFSMELPS | 210 ± 25 IFN-γ spots forming cells per million splenocytes | — | — | — |  | — |  | (0.1) μg/ml |  |
| PESVLINTYQWIIRNWE | 226 ± 5 IFN-γ spots forming cells per million splenocytes | — | — | — |  | — |  | (0.1) μg/ml |  |
| RMIGGIGRFYIQMCTEL | 45 ± 5 IFN-γ spots forming cells per million splenocytes | — | — | — |  | — |  | (0.1) μg/ml |  |
| IGVTVIKNNMINNDLGP | — | — | 159 ± 53(0.1) IFN-γ spots forming cells per million splenocytes | — |  | — | 159 ± 53(0.1) μg/ml |  |  |
| KLLGINMSKKKSYINRT | — | — | — | 116 ± 10(0.1) IFN-γ spots forming cells per million splenocytes | 116 ± 10(0.1) μg/ml | — |  |  |  |
| RFLRVRDQRGNVLLSPE | — | 184 ± 3 IFN-γ spots forming cells per million splenocytes | — | — |  | — |  |  | (0.1) μg/ml |
| PVHFRNQVKIRRRVDIN | — | — | — | — |  | 311 ± 37(0.1) IFN-γ spots forming cells per million splenocytes |  |  |  |
| LPDMTPSTEMSMRGVRV | — | — | — | 324 ± 28(0.1) IFN-γ spots forming cells per million splenocytes | 324 ± 28(0.1) μg/ml | — |  |  |  |
| MGMIGILPDMTPSTEMS | — | — | — | — |  | 238 ± 5(0.1) IFN-γ spots forming cells per million splenocytes |  |  |  |
